Converted amounts (≈) assume the structure as drawn. One block for each compound: values may come before it. The source made the active and inactive calls. The calls are words filed in the database; no cut-off is given here.
How the values were obtained:
[1] = biological target: T1, Transient receptor potential cation channel subfamily V member 1 (Homo sapiens, UniProt Q8NER1); assay: Antagonist activity at human TRPV1 expressed in CHO cells assessed as inhibition of capsaicin-induced calcium influx; format: functional, cell-based
T1 sequence (Q8NER1 whole entry): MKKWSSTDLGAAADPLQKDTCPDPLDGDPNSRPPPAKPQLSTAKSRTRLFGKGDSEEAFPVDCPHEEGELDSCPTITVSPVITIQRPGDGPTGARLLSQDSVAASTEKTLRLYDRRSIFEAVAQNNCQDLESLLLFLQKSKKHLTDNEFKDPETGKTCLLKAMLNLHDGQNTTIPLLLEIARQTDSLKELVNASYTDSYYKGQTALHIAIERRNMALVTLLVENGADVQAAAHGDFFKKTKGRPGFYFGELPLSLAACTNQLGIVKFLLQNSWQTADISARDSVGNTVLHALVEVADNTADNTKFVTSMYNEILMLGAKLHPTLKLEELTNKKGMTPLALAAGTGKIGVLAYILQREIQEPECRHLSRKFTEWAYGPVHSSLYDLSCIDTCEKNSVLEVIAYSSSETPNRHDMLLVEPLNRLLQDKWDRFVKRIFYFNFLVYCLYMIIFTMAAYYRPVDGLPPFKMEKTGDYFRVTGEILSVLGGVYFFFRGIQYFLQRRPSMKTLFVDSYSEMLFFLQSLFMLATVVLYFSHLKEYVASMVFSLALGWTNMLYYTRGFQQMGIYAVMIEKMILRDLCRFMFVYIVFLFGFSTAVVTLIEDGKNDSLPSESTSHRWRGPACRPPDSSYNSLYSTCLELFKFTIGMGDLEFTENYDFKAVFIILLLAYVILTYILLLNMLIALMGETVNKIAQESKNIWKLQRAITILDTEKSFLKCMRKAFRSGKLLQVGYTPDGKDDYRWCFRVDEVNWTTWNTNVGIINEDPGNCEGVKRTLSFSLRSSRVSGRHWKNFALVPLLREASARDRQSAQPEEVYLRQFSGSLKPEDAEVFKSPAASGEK

[2] = biological target: T1, Transient receptor potential cation channel subfamily V member 1; assay: Antagonist activity at human TRPV1 expressed in CHO cells assessed as inhibition of acid-induced calcium influx; format: functional, cell-based
[3] = biological target: T1, Transient receptor potential cation channel subfamily V member 1; assay: Antagonist activity at human TRPV1 expressed in CHO cells assessed as inhibition of heat-induced calcium influx; format: functional, cell-based
[4] = Metabolic stability in human liver microsomes assessed as clearance; format: ADME, Microsome
[5] = Metabolic stability in rat liver microsomes assessed as clearance; format: ADME, Microsome
[6] = In vivo clearance in Sprague-Dawley rat at 1 mg/kg, iv; format: ADME, organism-based; parameters: dose 1 mg/kg, route intravenous
[7] = Clearance in Sprague-Dawley rat at 1 mg/kg, iv; format: ADME, organism-based; parameters: dose 1 mg/kg, route intravenous; conditions: in vivo
[8] = Half life in Sprague-Dawley rat at 1 mg/kg, iv; format: ADME, organism-based; parameters: dose 1 mg/kg, route intravenous; conditions: in vivo
[9] = AUC (0-infinity) in Sprague-Dawley rat at 1 mg/kg, iv; format: ADME, organism-based; parameters: time infinity, dose 1 mg/kg, route intravenous; conditions: plasma
[10] = Volume of distribution at steady state in Sprague-Dawley rat at 1 mg/kg, iv; format: ADME, organism-based; parameters: dose 1 mg/kg, route intravenous; conditions: in vivo, read-out: Vss
[11] = Bioavailability in fasted Sprague-Dawley rat at 3 mg/kg, po; format: ADME, organism-based; conditions: in vivo
[12] = Aqueous solubility in hydrochloric acid by high-throughput automated format; format: physicochemical
[13] = Solubility in PBS by high-throughput automated format; format: physicochemical
[14] = Solubility in simulated intestinal fluid by high-throughput automated format; format: physicochemical
[15] = AUC (0 to infinity) in rat at 1 mg/kg, iv; format: ADME, organism-based; parameters: time infinity, dose 1 mg/kg, route intravenous; conditions: plasma
[16] = Clearance in rat at 1 mg/kg, iv; format: ADME, organism-based; parameters: dose 1 mg/kg, route intravenous; conditions: in vivo
[17] = Volume of distribution at steady state at 1 mg/kg, iv; format: ADME, organism-based; parameters: dose 1 mg/kg, route intravenous; conditions: rat, in vivo, read-out: Vss
[18] = Half life in rat at 1 mg/kg, iv; format: ADME, organism-based; parameters: dose 1 mg/kg, route intravenous; conditions: in vivo
[19] = Bioavailability in rat at 1 mg/kg, po; format: ADME, organism-based; conditions: in vivo
[20] = AUC (0-infinity) in dog at 1 mg/kg, iv; format: ADME, organism-based, Canis lupus familiaris; parameters: dose 1 mg/kg, route intravenous, time infinity; conditions: plasma
[21] = Clearance in dog at 1 mg/kg, iv; format: ADME, organism-based, Canis lupus familiaris; parameters: dose 1 mg/kg, route intravenous; conditions: in vivo
[22] = Volume of distribution at steady state in dog at 1 mg/kg, iv; format: ADME, organism-based, Canis lupus familiaris; parameters: dose 1 mg/kg, route intravenous; conditions: in vivo, read-out: Vss
[23] = Half life in dog at 1 mg/kg, iv; format: ADME, organism-based, Canis lupus familiaris; parameters: dose 1 mg/kg, route intravenous; conditions: in vivo
[24] = Bioavailability in dog at 1 mg/kg, po; format: ADME, organism-based, Canis lupus familiaris; conditions: in vivo
[25] = AUC (0-infinity) in monkey at 1 mg/kg, iv; format: ADME, organism-based, Macaca mulatta; parameters: time infinity, dose 1 mg/kg, route intravenous; conditions: rhesus monkey, plasma
[26] = Clearance in monkey at 1 mg/kg, iv; format: ADME, organism-based, Macaca mulatta; parameters: dose 1 mg/kg, route intravenous; conditions: rhesus monkey, in vivo
[27] = Volume of distribution at steady state in monkey at 1 mg/kg, iv; format: ADME, organism-based, Macaca mulatta; parameters: dose 1 mg/kg, route intravenous; conditions: rhesus monkey, in vivo, read-out: Vss
[28] = Half life in monkey at 1 mg/kg, iv; format: ADME, organism-based, Macaca mulatta; parameters: dose 1 mg/kg, route intravenous; conditions: rhesus monkey, in vivo
[29] = Bioavailability in monkey at 1 mg/kg, po; format: ADME, organism-based, Macaca mulatta; conditions: rhesus monkey, in vivo
Rattus norvegicus [30] = assay: Efficacy in capsaicin-induced flinching in po dosed Sprague-Dawley rat; format: functional
Rattus norvegicus [31] = assay: Inhibition of capsaicin-induced flinching in Sprague-Dawley rat at 3 mg/kg, po upto 24 hrs; format: functional, organism-based; parameters: dose 3 mg/kg
Rattus norvegicus [32] = assay: Inhibition of CFA-induced paw thermal hyperalgesia in po dosed Sprague-Dawley rat; format: functional; conditions: read-out: MED
Rattus norvegicus [33] = assay: Inhibition of CFA-induced paw thermal hyperalgesia in Sprague-Dawley rat at 10 mg/kg, po relative to control; format: functional; parameters: scale not given: the % may be the effect or the level left
[34] = biological target: T2, Transient receptor potential cation channel subfamily V member 1 (Rattus norvegicus, UniProt O35433); assay: Antagonist activity at rat TRPV1 expressed in CHO cells assessed as inhibition of capsaicin-induced calcium influx; format: functional, cell-based
T2 sequence (O35433 whole entry): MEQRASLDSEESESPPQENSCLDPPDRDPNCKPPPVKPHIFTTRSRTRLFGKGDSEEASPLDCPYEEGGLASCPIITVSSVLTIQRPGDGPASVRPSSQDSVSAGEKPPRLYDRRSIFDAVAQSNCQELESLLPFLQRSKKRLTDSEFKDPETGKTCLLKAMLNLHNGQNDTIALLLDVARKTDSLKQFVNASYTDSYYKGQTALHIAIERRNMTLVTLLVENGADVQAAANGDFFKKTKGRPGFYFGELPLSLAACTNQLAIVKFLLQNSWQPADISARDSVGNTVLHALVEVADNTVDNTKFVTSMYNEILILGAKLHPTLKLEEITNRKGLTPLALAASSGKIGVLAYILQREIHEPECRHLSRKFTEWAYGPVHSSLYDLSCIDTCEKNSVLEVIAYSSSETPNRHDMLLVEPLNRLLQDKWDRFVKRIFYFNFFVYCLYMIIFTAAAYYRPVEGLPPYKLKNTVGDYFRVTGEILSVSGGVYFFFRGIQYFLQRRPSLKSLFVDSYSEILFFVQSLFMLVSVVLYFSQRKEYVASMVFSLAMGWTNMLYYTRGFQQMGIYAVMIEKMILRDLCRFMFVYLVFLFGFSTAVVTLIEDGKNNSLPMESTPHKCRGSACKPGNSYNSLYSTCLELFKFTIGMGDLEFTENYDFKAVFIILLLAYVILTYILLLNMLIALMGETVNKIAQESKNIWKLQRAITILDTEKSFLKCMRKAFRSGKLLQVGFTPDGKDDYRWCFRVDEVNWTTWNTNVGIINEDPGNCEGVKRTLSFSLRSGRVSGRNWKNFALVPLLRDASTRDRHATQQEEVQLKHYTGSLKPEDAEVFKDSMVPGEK

[35] = biological target: T2, Transient receptor potential cation channel subfamily V member 1; assay: Antagonist activity at rat TRPV1 expressed in CHO cells assessed as inhibition of acid-induced calcium influx; format: functional, cell-based
[36] = Bioavailability in fasted Sprague-Dawley rat at 5 mg/kg, po; format: ADME, organism-based; conditions: in vivo
Rattus norvegicus [37] = assay: Blockade of capsaicin-induced hypothermia in rat at 3 mg/kg, po by telemetry model; format: functional
[38] = Half life in rat; format: ADME, organism-based; conditions: in vivo

SMILES: FC(F)(F)c1ccc(-c2cc(Oc3ccc4ccccc4n3)ncn2)cc1
IC50 [35]: > 4 µM

SMILES: FC(F)(F)c1ccc(-c2cc(Oc3ccnc4ccccc34)ncn2)cc1
IC50 [34]: > 4 µM
IC50 [35]: > 4 µM

SMILES: CCC(=O)Nc1nc2c(Oc3cc(-c4ccc(C(F)(F)F)cc4)ncn3)cccc2s1
IC50 [35]: 1.5 µM

SMILES: Nc1nc2c(Oc3cc(-c4ccc(C(F)(F)F)cc4)ncn3)cccc2[nH]c1=O
IC50 [1]: 0.0008 µM
IC50 [2]: 0.0009 µM
IC50 [3]: 0.0004 µM
microsomal CLint [4]: < 14 µL/min/mg
microsomal CLint [5]: < 14 µL/min/mg
clearance [6]: 0.26 L/h/kg
clearance [7]: 0.197 L/h/kg
half-life [8]: 6 h
AUC(0-inf) [9]: 5.14 µg·h/mL
Vd [10]: 1.69 L/kg
bioavailability [36]: 7%
solubility [12]: < 1 µg/mL
solubility [13]: < 1 µg/mL
solubility [14]: 9.2 µg/mL (≈ 23 µM)

Second part, led by results:

IC50 [1]: 0.00076 µM
IC50 [2]: 0.00062 µM
IC50 [3]: 0.0013 µM
microsomal CLint [4]: < 5 µL/min/mg
microsomal CLint [5]: 50 µL/min/mg
clearance [6]: 0.25 L/h/kg
clearance [7]: 0.19 L/h/kg
half-life [8]: 6.3 h
AUC(0-inf) [9]: 5.4 µg·h/mL
Vd [10]: 1.56 L/kg
bioavailability [11]: 32%
solubility [12]: < 1 µg/mL
solubility [13]: < 1 µg/mL
solubility [14]: 6.6 µg/mL (≈ 15.3 µM)
AUC(0-inf) [15]: 8.8 µg·h/mL
clearance [16]: 0.12 L/h/kg
Vd [17]: 4 L/kg
half-life [18]: 31 h
bioavailability [19]: 51%
AUC(0-inf) [20]: 7.4 µg·h/mL
clearance [21]: 0.14 L/h/kg
Vd [22]: 7 L/kg
half-life [23]: 41 h
bioavailability [24]: 23%
AUC(0-inf) [25]: 37 µg·h/mL
clearance [26]: 0.03 L/h/kg
Vd [27]: 2.3 L/kg
half-life [28]: 62 h
bioavailability [29]: 52%
SMILES: CC(=O)Nc1nc2c(Oc3cc(-c4ccc(C(F)(F)F)cc4)ncn3)cccc2s1 [AMG-517]
ED50 (Rattus norvegicus [30]): 0.35 mg/kg
Activity (Rattus norvegicus [31]): Active
minimal effective dose (Rattus norvegicus [32]): 0.83 mg/kg
Activity (Rattus norvegicus [33]): 35%

IC50 [34]: > 4 µM
IC50 [35]: 0.86 µM
SMILES: CC(=O)N(C)c1nc2c(Oc3cc(-c4ccc(C(F)(F)F)cc4)ncn3)cccc2s1

IC50 [34]: 0.0012 µM
IC50 [35]: > 4 µM
microsomal CLint [4]: < 5 µL/min/mg
microsomal CLint [5]: 47 µL/min/mg
clearance [6]: 0.22 L/h/kg
SMILES: Nc1nc2c(Oc3cc(-c4ccc(C(F)(F)F)cc4)ncn3)cccc2s1

IC50 [34]: 0.063 µM
IC50 [35]: 0.016 µM
microsomal CLint [4]: < 14 µL/min/mg
microsomal CLint [5]: 15 µL/min/mg
clearance [6]: 4.3 L/h/kg
SMILES: Nc1cnc2cccc(Oc3cc(-c4ccc(C(F)(F)F)cc4)ncn3)c2n1
Activity (Rattus norvegicus [37]): 100%

half-life [38]: 2.8 h
SMILES: FC(F)(F)c1ccc(-c2cc(Oc3ccc4cccnc4c3)ncn2)cc1

IC50 [34]: > 4 µM
IC50 [35]: > 4 µM
SMILES: O=c1ccc2cccc(Oc3cc(-c4ccc(C(F)(F)F)cc4)ncn3)c2[nH]1

IC50 [34]: 0.46 µM
IC50 [35]: > 4 µM
SMILES: FC(F)(F)c1ccc(-c2cc(Oc3ccc4ccncc4c3)ncn2)cc1

From ChEMBL document CHEMBL1145459, “Novel vanilloid receptor-1 antagonists: 2. Structure-activity relationships of 4-oxopyrimidines leading to the selection of a clinical candidate” (J Med Chem, 2007)
